One substance from US20180284095A1, “BIOMARKERS ASSOCIATED WITH LSD1 INHIBITORS AND USES THEREOF” (Oryzon Genomics, S.A., priority 2015, published 2018) can be followed below.

Common to all, as to format: in vivo, mouse
Assay [1] has as its system S100A9. As to the kind of experiment: Illumina RNA sequencing, hippocampus of SAMP8 mice (Example 4). The method, then: Illumina dye sequencing begins with the attachment of cDNA molecules to primers on a slide, followed by amplification of that DNA to produce local colonies. The four types (adenine, cytosine, guanine, and thymine) of reversible terminate bases are added, each fluorescently labeled with a different color and attached with a blocking group. The four bases then compete for binding sites on the template cDNA to be sequenced and non-incorporated molecules are washed away. After each synthesis, a laser is used to excite the dyes and a photograph of the incorporated base is taken. A chemical deblocking step is then used in the removal of the 3′ terminal blocking group and the dye in a single step. The process is repeated until the full cDNA molecule is sequenced.
Illumina RNA-Seq technology records the numerical frequency of sequences in a library population. 50 bp single reads with multiples of 30M single reads are guaranteed using Illumina sequencing technology. The RNA-Seq reads are aligned to the reference genome or reference transcriptome using Bowtie generating genome/transcriptome alignments. TopHat identifies the potential exon-exon splice junctions of the initial alignment. Then Cufflinks identifies and quantifies the transcripts from the preprocessed RNA-Seq alignment assembly. After this, Cuffmerge merges the identified transcript pieces to full length transcripts and annotates the transcripts based on the given annotations. Finally, merged transcripts from two or more samples/conditions are compared using Cuffdiff to determine the differential expression levels at transcript and gene level including a measure of significance between samples/conditions.
Differential gene expression. Operating on the RNA-Seq alignments and Cuffinks processing, Cuffdiff tracks the mapped reads and determines the fragment per kilo base per million mapped reads (FPKM) for each transcript in all the samples. Primary transcripts and gene FPKMs are then computed by adding up the FPKMs of each primary transcript group or gene group. […]

In a further assay the test system is S100A8. The experiment in a line: qRT-PCR, hippocampus of SAMP8 mice (Example 5). The conditions noted are these: SAMP8 female mice. The text has this: (§1) qRT-PCR is a variant of the PCR (Polymerase Chain Reaction) method that permits the simultaneous exponential amplification and detection of specific cDNA fragments. The Taqman gene expression assays employ the principle of doubly labeled hydrolysis probes. The probes are marked with a fluorescent moiety at their 5′ end and with a quencher moiety at the 3′ end, which prevents the generation of fluorescence according to the Förster energy transfer principle.
(§2) During the amplification process, the hydrolysis probe hybridizes to its complementary sequence in the target amplicon. During each cycle, the Taq polymerase initiates the production of a copy of the target sequence starting from the primer. When the Taq polymerase reaches the hydrolysis probe, its 5′-3′ exonuclease activity fragments the hydrolysis probe, and liberates the fluorescent group from the quencher moiety, resulting in the emission of a fluorescent signal.
(§3) In the exponential phase of the amplification reaction, the intensity of the fluorescence is directly proportional to the quantity of PCR product formed. The LightCycler® 480 Software determines the “crossing point” (Cp), i.e. the point where the reaction's fluorescence reaches the maximum of the second derivative of the amplification curve, which corresponds to the point where the acceleration of the fluorescence signal is at its maximum. […] The 2-Cp values are proportional to the target mRNA concentration in the original RNA sample.
(§4) Samples from animals receiving treatment for 2 months and 4 months were processed and statistically analyzed together. After extraction (RNeasy Mini KIT; QIAGEN), total RNA was reverse transcribed to obtain 1st strand cDNA (High Capacity RNA-to-cDNA Master Mix; Applied Biosystems). A serial dilution of 1st strand product from hippocampus was used to perform triplicate qRT-PCR (Taqman gene expression assay, Life technologies) reactions to analyze the Cp values of S100A8 and S100A9. Cp increase was normalized relative to the expression level of an endogenous reference gene (GADPH).
In general terms: Real-time PCR tracks product formation cycle by cycle.

The subject of assay [2] is S100A9. The experiment in a line: qRT-PCR, hippocampus of SAMP8 mice (Example 5). The conditions noted are these: 2 or 4 months.
Excerpt: as §1, §2, §3, §4

With “(−) 5-((((trans)-2-(4-(benzyloxy)phenyl)cyclopropyl)amino)methyl)-1,3,4-oxadiazol-2-amine [Compound 1]”, the “Female FPKM S100A9” value in the assay with S100A9 [1] (hippocampus pool, SAMP8 females, 0.96 mg/kg/day, 4 months) is recorded as 0.61 FPKM. The “Male FPKM S100A9” value in the assay on S100A9 [1] (hippocampus pool, SAMP8 males, 0.32 mg/kg/day, 4 months) turned out to be 1.03 FPKM. Further, the “S100A9 expression (RNA-seq)” value in the assay with S100A9 [1] (hippocampus, SAMP8, vs vehicle-treated animals of the same sex) was “down-regulated S100A9 expression”. The “S100A8 expression (qRT-PCR)” value with S100A8 is listed as “down-regulated S100A8 expression tendency”. The “S100A9 expression (Δ Cp, qRT-PCR)” value is “down-regulated S100A9 expression in a dose-dependent fashion” with S100A9 [2] (SAMP8 females, 0.96 mg/kg/day (p<0.001) and 3.2 mg/kg/day (p<0.001)); “reduction of S100A9 expression” with S100A9 [2] (SAMP8 females, 0.96 mg/kg/day (p<0.001) and 3.2 mg/kg/day (p<0.001), listed as compound 1); “down-regulated S100A9 expression” in the assay on S100A9 [2] (SAMP8 males, 0.96 mg/kg (p<0.001), 0.96 mg/kg); “reduction of S100A9 expression” with S100A9 [2] (SAMP8 males, 0.96 mg/kg (p<0.001), listed as compound 1, 0.96 mg/kg).
